pIC50: −log10 of the molar value.
target: superoxide-dependent, iron-promoted lipid peroxidation of native rat heart cardiac lipid liposomes; assay: Lipid peroxidation inhibition (in vitro testing of antiperoxidative agents, ANTI-OX), hypoxanthine-xanthine oxidase-Fe3+.ADP, rat cardiac liposomes, MDA equivalents; type: biochemical; conditions: 60 min, 37° C., screened at 1.0 μM, IC50 determined if inhibition ≥ 50%, read-out: ANTI-OX IC-50
Experimental: The test system employs hypoxanthine-xanthine oxidase (XO)-Fe^3+. ADP as the free radical generator and purified, native rat-heart membrane phosphoglyceride in Hepes-KCl buffer, pH 7.4, as the substrate. Inhibition of superoxide-dependent, iron-promoted lipid peroxidation in the linear reaction phase (after 1 hour of reaction) is measured as the net formation of thiobarbituric acid (TBA)-reactive material. In this system, the TBA-reactive material, isolated by HPLC, is exclusively (>95%) malondialdehyde (MDA), a fragmentation end-product arising from fatty acyl hydroperoxides and cyclic endoperoxides. […]
a) Isolation and purification of Rat Cardiac Lipid
Conscious male Sprague-Dawley rats (~275g) maintained on a normal rodent diet were decapitated. The hearts were rapidly removed and perfused via the aorta with ice-cold 10 mM Hepes buffer, pH 7.4. The aorta and atria were removed, and the ventricular tissue was blotted and weighed (wet weight). The hearts were minced on ice with scissors and finally homogenized (100 mg tissue/ml ice-cold buffer) for 15 seconds (3×5 seconds) with a Tekmar Tissumizer at "maximal" setting. The homogenate was filtered through 4-ply cheesecloth, and homogenate lipids were extracted and purified by a modified Bligh-Dyer procedure (M.D. Marshall and M. Kates, Biochem. Biophys. Acta 260, 558 (1972). The cardiac lipids were stored in CHCl3 under nitrogen at -20° C. […]
b) Preparation of Cardiac Liposomes
Liposomes were prepared from extracted and purified, native rat heart cardiac lipid and were used as substrate for free-radical attack. Cardiac lipid (in CHCl3) was placed in a glass flask and evaporated to dryness under nitrogen at room temperature; the flask was gently rotated during evaporation to yield a thin, dry lipid film. The lipid was taken up in 10 mM Hepes-0.145M KCl, pH 7.4, and was resuspended by indirect an aerobic sonification for 15 minutes at room temperature. The liposome suspension was used immediately. […]
c) preparation of Fe^3+ -ADP Chelate
A chelate was formed in Hepes-KCl buffer between Fe^3+ (1.0mM FeCl3, final concentration) and ADP (10mM, final concentration) at pH 7.4 with stirring at room temperature. Chelation was allowed to proceed for 90 minutes prior to use. The chelate was prepared fresh for each days experiments to ensure iron solubility, effective chelation, and valence state. […]
d) Thiobarbituric Acid Reaction or Determination of Malondialdehvde Equivalents Malondialdehyde (MDA) equivalents were measured as thiobarbituric acid (TBA)-reactive material by the following modification of published methods. The reaction mixture. prepared fresh daily, contained water: BHT ([…] BHT in absolute ethanol): TBA (1.5% TBA in 0.2M Tris, pH 7.0) in the volume ratio 1:1:5. To each 1.0 ml of peroxidation reaction assayed (see below), 0.35 ml reaction mixture was added. After thorough mixing, the tubes were incubated in an 80° C. shaking water bath for 30 minutes. After this time, the tubes were plunged into an ice water bath, and the reaction was immediately stopped with 0.5 ml ice-cold 91% TCA followed by 2.0 ml CHCl3 After centrifugation for 30 minutes at 2000 rpm in a Sorval HL-8 rotor (4° C.), the absorbance of the washed, pink upper phase was read at 532 nm. A standard curve (0.8-40.0 nmol MDA) was run with every assay. For each curve, MDA was freshly prepared by acidification of 1,1,3,3 -tetraethoxypropane with 75% TCA-2.3N HCl (0.15 ml acid mixture with 1.0 ml suitably diluted tetraethoxypropane). Computer-assisted regression analysis of the standard curve was used to quantify the molar amounts of MDA equivalents in the experimental samples. […]
e) Lipid peroxidation Reaction
Cardiac liposomes were subjected to superoxidedependent. iron-promoted peroxidation in glass vessels to avoid the well-known antioxidant effects of many common polymerizing agents used to fabricate plastic labware. […]

Compared with COc1cc(CO)cc2cc(C3(C)CCc4c(C)c(O)c(C)c(C)c4O3)oc12 (racemic) [Example 55, rac-2-(3,4-Dihydro-6-hydroxy-2,5,7,8-tetramethyl-2H-1-benzopyran-2-yl)-7-methoxybenzofuran-5-methanol], COc1ccc(CCC2(C)CCc3c(C)c(O)c(C)c(C)c3O2)cc1OC(C)=O (racemic) [Example 60, rac-2-{2-[3-(Acetyloxy)-4-methoxyphenyl]ethyl}-3,4-dihydro-2,5,7,8-tetramethyl-2H-1-benzopyran-6ol] is lower in pIC50: 6.07 for the first, less than 6.00 for the second. The first is the more potent here.

Going from Cc1c(C)c2c(c(C)c1O)CCC(C)(CCc1cccs1)O2 (racemic) [Example 57, rac-3,4-Dihydro-2,5,7,8-tetramethyl-2-[2-(2-thienyl)ethyl]-2H-1-benzo-pyran-6-ol] to Cc1c(C)c2c(c(C)c1O)CCC(C)(CCc1ccccn1)O2 (racemic) [Example 58, rac-3,4-Dihydro-2,5,7,8-tetramethyl-2-[2-(2-pyridinyl)ethyl]-2H-1-benzopyran-6-ol], the pIC50 rises from less than 6.00 to 6.15.

Compared with Cc1c(C)c2c(c(C)c1O)CCC(C)(CCc1cccnc1)O2 (racemic) [Example 59, rac-3,4-Dihydro-2,5,7,8-tetramethyl-2-[2-(3-pyridinyl)ethyl]-2H-1-benzopyran-6-ol], COc1cccc(CCC2(C)CCc3c(C)c(O)c(C)c(C)c3O2)c1 (racemic) [Example 62, rac-3,4-Dihydro-2-[2-(3-methoxyphenyl)ethyl]-2,5,7,8-tetramethyl-2H-1-benzopyran-6-ol] is lower in pIC50: 6.30 for the first, less than 6.00 for the second. The first is the more potent here.

Cc1c(C)c2c(c(C)c1O)CCC(C)(CCc1ccc(O)c(O)c1)O2 (racemic) [Example 61, rac-4-[2-(3,4-Dihydro-6-hydroxy-2,5,7,8-tetramethyl-2H-1-benzopyran-2-yl)ethyl]-1,2-benzenediol] and COC(=O)c1cc(CCC2(C)CCc3c(C)c(O)c(C)c(C)c3O2)ccc1O (racemic) [Example 63, rac-5-[2-(3,4-Dihydro-6-hydroxy-2,5,7,8-tetramethyl-2H-1-benzopyran-2-yl)ethyl]-2-hydroxybenzoic acid methyl ester] cannot be ordered by pIC50: less than 6.00 for the first, less than 6.00 for the second.

Cc1c(C)c2c(c(C)c1O)CCC(C)(CCc1ccc(-c3cccnc3)cc1)O2 (racemic) [Example 64, rac-3,4-Dihydro-2,5,7,8-tetramethyl-2-{2-[4-(3-pyridinyl)-phenyl]ethyl}-2H-1-benzopyran-6-ol] and Cc1c(C)c2c(c(C)c1O)CCC(C)(CCc1ccc(-c3ccccn3)s1)O2 (racemic) [Example 65, rac-3,4-Dihydro-2,5,7,8-tetramethyl-2-{2-[5-(2-pyridinyl)-2-thienyl]ethyl}-2H-1-benzopyran-6ol] cannot be ordered by pIC50: less than 6.00 for the first, less than 6.00 for the second.

First: CCCCc1ccc(CCC2(C)CCc3c(C)c(O)c(C)c(C)c3O2)s1 (racemic) [Example 66, rac-2-[2-(5-Butyl-2-thienyl)ethyl]-3,4-dihydro-2,5,7,8-tetramethyl-2H-1-benzopyran-6-ol]
Second: Cc1c(C)c2c(c(C)c1O)CC[C@](C)(C#Cc1cccs1)O2 [Example 5, (R)-3,4-Dihydro-2,5,7,8-tetramethyl-2-[(2-thienyl)ethynyl]-2H-1-benzopvran-6-ol]
The pIC50 of the first is lower: less than 6.00 for the first, 6.10 for the second.

First: Cc1c(C)c2c(c(C)c1O)CC[C@@](C)(C#Cc1cccs1)O2 [Example 13, (S)-3,4-Dihydro-2,5,7,8-tetramethyl-2-[(2-thienyl)ethynyl]-2H-1-benzopyran-6-ol]
Second: Cc1c(C)c2c(c(C)c1O)CCC(C)(C#Cc1ccc3c(c1)N(C)C(=O)CO3)O2 (centres unmarked) [Example 48]
The pIC50 of the first is lower: less than 6.00 for the first, 6.12 for the second. The second is the more potent here.

From patent US5015661A, “Chromanes and their pharmaceutical compositions and methods” (Hoffmann-La Roche Inc., priority 1989, dated 1991)
